Measurements: patent US10941157B2, “Pesticidal compositions and uses thereof” (Gilead Apollo, LLC, priority 2015, dated 2021)
Values after ≈ are worked out from the molar mass of the structure shown.

Tests used:
Botrtyis cinerea (Bc) = experiment: In vitro pathogen growth inhibition assay, Bc; type: cell-based; details: 48 h, ≥90% inhibition; 48 hours vs 2% DMSO control; read-out: Compound Concentration (ppm) sufficient for ≥90% inhibition of growth, Bc
Procedure, shortened: (§1)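 Value reported is the compound concentration reaching ≥90% growth inhibition, from OD readings at 24 and 48 h after blank subtraction, confirmed visually. Inoculum was spores diluted in 17% V8 medium, except Rs, using 1.5 mm mycelial plugs in ¼ PDB; actual compound concentration corrected via OD600.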

[1] = system: Collectotrichum graminicola (Cg); experiment: In vitro pathogen growth inhibition assay, Cg; type: cell-based; details: 48 h, ≥90% inhibition; 48 hours vs 2% DMSO control; read-out: Compound Concentration (ppm) sufficient for ≥90% inhibition of growth, Cg
Procedure, shortened: as §1

Diplodia maydis (Dm) = experiment: In vitro pathogen growth inhibition assay, Dm; type: cell-based; details: Stenocarpella maydis, 48 h, ≥90% inhibition; 48 hours vs 2% DMSO control; read-out: Compound Concentration (ppm) sufficient for ≥90% inhibition of growth, Dm
Procedure, shortened: (§2)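 Spores in 17% V8 liquid medium, or 1.5 mm Rs mycelial plugs in ¼ PDB, incubated with compound; final concentration checked by OD600 for precipitation. OD readings at 24 and 48 h, blank-subtracted, plus visual ratings; value is concentration giving ≥90% growth inhibition.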

[2] = system: Fusarium moniliforme (Fm); experiment: In vitro pathogen growth inhibition assay, Fm; type: cell-based; details: Fusarium verticillioides; ≥90% inhibition; 48 hours vs 2% DMSO control; read-out: Compound Concentration (ppm) sufficient for ≥90% inhibition of growth, Fm
Procedure, shortened: as §1

[3] = system: Fusarium virguliforme (Fv); experiment: In vitro pathogen growth inhibition assay, Fv; type: cell-based; details: ≥90% inhibition, 48 hours vs 2% DMSO control, read-out: Compound Concentration (ppm) sufficient for ≥90% inhibition of growth, Fv
Procedure, shortened: as §2

[4] = system: Phytophthora capsici (Pc); experiment: In vitro pathogen growth inhibition assay, Pc; type: cell-based; details: 48 h, ≥90% inhibition, 48 hours vs 2% DMSO control, read-out: Compound Concentration (ppm) sufficient for ≥90% inhibition of growth, Pc
Procedure, shortened: as §2

Rhizoctonia solani (Rs) = experiment: In vitro pathogen growth inhibition assay, Rs (mycelial plugs); type: cell-based; details: Rhizoctonia solani, 48 h, ≥90% inhibition; mycelial plugs; 48 hours vs 2% DMSO control; read-out: Compound Concentration (ppm) sufficient for ≥90% inhibition of growth, Rs
Procedure, shortened: as §2

Septoria tritici (St) = experiment: In vitro pathogen growth inhibition assay, St; type: cell-based; details: Zymoseptoria tritici, 48 h, ≥90% inhibition; 48 hours vs 2% DMSO control; read-out: Compound Concentration (ppm) sufficient for ≥90% inhibition of growth, St
Procedure, shortened: as §1

[5] = system: Blumeria graminis f. sp. hordei; experiment: Foliar protection test for barley powdery mildew control; type: in vivo; details: foliar spray on Hordeum vulgare cv. Perry, inoculated 24 hours after treatment, evaluated 7 days later
Procedure, shortened: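 Protective foliar test: compound atomized onto both leaf surfaces of 6-day-old Hordeum vulgare cv. Perry, followed after 24 h by spore-cloud inoculation from colonized untreated plants. Disease rated on leaves 7 days on, plants held at 20 to 22° C and 70% RH.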

Sphaerotheca fuliginea = experiment: Foliar protection for cucumber powdery mildew control; type: in vivo; details: foliar spray on Cucumis sativus cv. Straight Eight, inoculated 24 hours after treatment, evaluated 7 days later
Procedure, shortened: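 Protective foliar spray on 10-day-old Straight Eight cucumbers, with S. fuliginea spores dusted from infected stock plants 24 h after treatment. Disease developed at 23–27 °C, 60% RH and a 16 h photoperiod. Leaves were rated for mildew growth after 7 days; test rates 10 ppm or below.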

[6] = system: Mycosphaerella graminicola (synthetic Septoria tritici); experiment: Foliar protection test for wheat septoria leaf blotch control; type: in vivo; details: foliar spray on Triticum aestivum cv. WinterHawk, inoculated 1 hour after treatment, evaluated 16 days later
Fusarium graminearum = type: in vivo; details: spray on flowering Triticum aestivum cv. Samson, inoculated 24 hours after treatment, evaluated 14 days later
Puccinia triticina = experiment: Foliar protection test for wheat leaf rust control; type: in vivo; details: foliar application to wheat (Triticum aestivum cv. Winterhawk), evaluated 10 days later
Phakopsora pachyrhizi = experiment: Foliar protection test for Asian soybean rust control; type: in vivo; details: foliar application to soybean (Glycine max AG4832), percent disease area evaluated 14 days later
Rhizoctonia solani = experiment: Seed protectant for soybean seedling disease, R. solani; type: in vivo; details: soybean from treated seeds, 0.025 mg/seed, R. solani inoculated
Protocol: (§3) The pathogen of Rhizoctonia solani inoculum was grown on sterile sorghum; and the pathogen of Pythium ultimum inoculum was grown on white millet.
(§4) Soybean seeds (Glycine max cv. AG4832) were planted in 2.5-inch square pots containing Berger BM2 germination mix amended with fertilizer (e.g., 14-14-14). Pots with soil were inoculated with the pathogen of R. solani or P. ultimum at time of planting. A hole was pressed into the soil to a depth of about 2 to 3 cm; the inoculum was added to the hole, followed by the seed which was then covered with soil. Two seeds per pot were planted. Plants were grown in a growth chamber at conditions of 20 to 24° C., 14 hour light cycle, 500 uM of light, and 65% humidity. The pots inoculated with P. ultimum were sub-irrigated every day; and the pots inoculated with R. solani were sub-irrigated every other day.
(§5) Seedling emergence was captured at 7 and 14 days after seeding. At 14 days, the top of the plant was removed and fresh weight was recorded. The plant weights from the seeds treated with test compounds (e.g., in formulations) were compared to the ones either from the inoculated non-treated seeds or non-inoculated non-treated seeds. Table 10 lists the results of the R. solani control in soybean upon seed treatment with test compounds, and Table 11 lists the results of the P. ultimum control in soybean upon seed treatment with test compounds, respectively.

Pythium ultimum = experiment: Seed protectant for soybean seedling disease, P. ultimum; type: in vivo; details: soybean from treated seeds, 0.025 mg/seed, P. ultimum inoculated
Protocol: as §3, §4, §5

[7] = system: Saccharomyces cerevisiae (Sc); experiment: Yeast growth inhibition assay; type: cell-based; details: Saccharomyces cerevisiae, ≥75% inhibition, read-out: Compound Concentration (ppm) sufficient for ≥75% inhibition, Sc
Protocol: Both tables list the concentration of each compound that was sufficient to ≥90% inhibition of growth for each of the fungal pathogens listed above. In addition, some of compounds were tested in a yeast growth inhibition assay for Saccharomyces cerevisiae (Sc). Table 2 lists the concentration of the tested compound that was sufficient to ≥75% inhibition of Saccharomyces cerevisiae (Sc).

[8] = percentage of non-inoculated non-treated controls

SMILES	IC90 (Botrtyis cinerea (Bc)) [µg/mL]	IC90 [1] [µg/mL]	IC90 (Diplodia maydis (Dm)) [µg/mL]	IC90 [2] [µg/mL]	IC90 [3] [µg/mL]	IC90 [4] [µg/mL]	IC90 (Rhizoctonia solani (Rs)) [µg/mL]	IC90 (Septoria tritici (St)) [µg/mL]	Barley Powdery Mildew Control at a compound concentration of 10 ppm or lower [5]	Cucumber Powdery Mildew Control at a compound concentration of 10 ppm or lower (Sphaerotheca fuliginea)	Septoria Leaf Blotch Control at a compound concentration of 25 ppm or lower [6]	Wheat Fusarium Head Blight Control at a compound concentration of 25 ppm or lower (Fusarium graminearum)	Wheat Leaf Rust Control at a compound concentration of 10 ppm or lower (Puccinia triticina)	Asian Soybean Rust Control at a compound concentration of 25 ppm or lower (Phakopsora pachyrhizi)	Plant Weight (Rhizoctonia solani; fresh weight at 14 days) [g]	Improvement in plant weight (Rhizoctonia solani; [8]) [%]	Plant Weight (Pythium ultimum; fresh weight at 14 days) [g]	Improvement in plant weight (Pythium ultimum; [8]) [%]	IC75 [7] [µg/mL]
COc1ccc(F)cc1[C@H](Cn1c(=O)n(C(C)(C)C(=O)NC(C)C)c(=O)c2c(C)c(-n3nccn3)sc21)OCCO [Compound I-064, (R)-2-(1-(2-(5-fluoro-2-methoxyphenyl)-2-(2-hydroxyethoxy)ethyl)-5-methyl-2,4-dioxo-6-(2H-1,2,3-triazol-2-yl)-1,4-dihydrothieno[2,3-d]pyrimidin-3 (2H)-yl)-N-isopropyl-2-methylpropanamide]	2 (≈ 3.4 µM)	0.4 (≈ 0.68 µM)	0.4 (≈ 0.68 µM)	0.08 (≈ 0.136 µM)	0.4 (≈ 0.68 µM)	≥ 2	≥ 0.08	≥ 2	A (from 70% to 84% control of barley powdery mildew)	AA (≥85% control of cucumber powdery mildew)	A (from 70% to 84% control of wheat septoria leaf blotch)	C (from 25 to 49% control of wheat fusarium head blight)	AA (≥85% control of wheat leaf rust)	A (from 70% to 84% control of Asian soybean rust)	6.41	79.9	5.49	88	
CCOC(=O)c1sc2c(c1C)c(=O)n(C(C)(C)C(=O)N1CCCC1)c(=O)n2C[C@H](OC1CCOCC1)c1ccccc1OC [Compound I-003, (R)-ethyl-1-(2-(2-methoxyphenyl)-2-((tetrahydro-2H-pyran-4-yl)oxy)ethyl)-5-methyl-3-(2-methyl-1-oxo-1-(pyrrolidin-1-yl)propan-2-yl)-2,4-dioxo-1,2,3,4-tetrahydrothieno[2,3-d]pyrimidine-6-carboxylate]	2 (≈ 3.19 µM)	0.4 (≈ 0.637 µM)	2 (≈ 3.19 µM)	0.08 (≈ 0.127 µM)	0.4 (≈ 0.637 µM)	> 50	0.4 (≈ 0.637 µM)	≥ 10	A (from 70% to 84% control of barley powdery mildew)	AA (≥85% control of cucumber powdery mildew)	C (from 25 to 49% control of wheat septoria leaf blotch)	B (from 50 to 69% control of wheat fusarium head blight)	AA (≥85% control of wheat leaf rust)	A (from 70% to 84% control of Asian soybean rust)					0.4 (≈ 0.637 µM)
COc1ccc(F)cc1[C@H](Cn1c(=O)n(C(C)(C)C(=O)NC(C)C)c(=O)c2c(C)c(-n3cccn3)sc21)OC(C)C [Compound I-014, (R)-2-(1-(2-(5-fluoro-2-methoxyphenyl)-2-isopropoxyethyl)-5-methyl-2,4-dioxo-6-(1H-pyrazol-1-yl)-1,4-dihydrothieno[2,3-d]pyrimidin-3(2H)-yl)-N-isopropyl-2-methylpropanamide]	0.4 (≈ 0.683 µM)	2 (≈ 3.41 µM)	2 (≈ 3.41 µM)	0.08 (≈ 0.137 µM)	0.4 (≈ 0.683 µM)	> 50	2 (≈ 3.41 µM)	> 10	AA (≥85% control of barley powdery mildew)	AA (≥85% control of cucumber powdery mildew)	D (<25% control of wheat septoria leaf blotch)	C (from 25 to 49% control of wheat fusarium head blight)	A (from 70% to 84% control of wheat leaf rust)	A (from 70% to 84% control of Asian soybean rust)					1.2 (≈ 2.05 µM)
